Tests used:
[1] = tested on: osteoarthritis-induced New Zealand white rabbits; experiment: Nitric oxide levels in synovial fluids (Griess reaction); assay type: in vivo
Excerpt: (§1) To prepare an osteoarthritis animal model, New Zealand white rabbits underwent anterior cruciate ligament transection (ACLT) in joints of their two hind legs. After three days, the rabbits were forced to sustain movement for four weeks in a space of 5×5 m^3 to induce substantial osteoarthritis. […] The following Examples 3 to 10 were all performed using joints of the osteoarthritis-induced New Zealand white rabbits prepared as in this Example 2.
A synovial fluid and a Griess reagent were mixed at a ratio of 1:1 (100 μl: 100 μl) and allowed to stand at room temperature for 10 min, and absorbance was measured at 540 nm using a spectrophotometer (Power Wave X340, Bio-Tek). The Griess reagent was prepared in a final volume of 10 ml using 0.1 g of sulfanilamide (S9251, Sigma), 0.5 ml of phosphoric acid (P6560, Sigma) and 0.01 g of N-naphthyl-diamine-H-chloride (102397, ICN). A quantitative curve for nitrite was obtained using sodium nitrite (S2252, Sigma).

RAW 264.7 cells = experiment: LPS-induced prostaglandin E2 production of macrophages (immunoassay); assay type: cell-based, mice; conditions: LPS alone 4156, non-treated 71
Description: A macrophage cell line derived from mice, RAW 264.7 (KCLB 40071), was purchased from the Korean Cell Line Bank. RAW 264.7 cells were seeded in a density of 3×10^6 cells onto 60-mm culture dishes containing DMEM (Dulbecco's Modified Eagle Medium, 12800-017, Gibco) supplemented with 10% FBS (fetal bovine serum, 26140-079, Gibco), 100 U/ml of penicillin and 100 μg/ml streptomycin (15140-122, Gibco), and cultured at 37° C. under 5% CO2 and humidity for 24 hrs. To induce NO production, RAW 264.7 cells were treated with 500 ng/ml of an E. coli cell wall component, lipopolysaccharide (LPS, […], Sigma). […] Herein, LPS was dissolved in distilled water, and apigenin was dissolved in DMSO. Then, the culture medium and a Griess reagent were mixed at a ratio of 1:1 (100 μl: 100 μl) and allowed to stand at room temperature for 10 min. Thereafter, absorbance was measured at 540 nm using a spectrophotometer (Power Wave X340, Bio-Tek). RAW 264.7 cells were treated under the same conditions as in Example 12. PGE2 levels were measured using a PGE2 immunoassay kit (DE0100, R&D Systems). 100 μl of a culture medium was allowed to react with 50 μl of a conjugate and 50 μl of an antibody in the kit for two hours, and was then allowed to react with 200 μl of a developing reagent, pNPP, for one hour. Thereafter, absorbance was measured at 405 nm using a spectrophotometer (Power Wave X340, Bio-Tek).

[2] = tested on: osteoarthritis-induced New Zealand white rabbits; experiment: H&E staining and safranin-O staining of joint cartilage; assay type: in vivo; conditions: apigenin treatment group compared to control group
Description: Distal femurs were collected from experimental animals and fixed with 4% formalin (F8775, Sigma) for over 24 hrs. An area of the distal femur to be analyzed was sectioned into a 5-mm thickness, decalcified with 5% nitric acid (25, 811-3, Sigma) for over 24 hrs and embedded into paraffin to provide a paraffin block. The paraffin block was sectioned, and the resulting 4-μm sections were subjected to H&E staining and staining with a cartilage-specific dye, safranin-O (S2255, Sigma), and observed under an optical microscope to evaluate the condition of cartilage.

[3] = tested on: osteoarthritis-induced New Zealand white rabbits; experiment: Prostaglandin E2 levels in joint synovial fluids (EIA); assay type: in vivo
Excerpt: as §1
Using the joint synovial fluids prepared in Example 3, prostaglandin E2 (PGE2) levels in synovial fluids were measured using an enzyme immunoassay (EIA) kit (DE0100, R&D Systems). 100 μl of a 1:10 dilution of a synovial fluid sample was mixed with 50 μl of a conjugate and 50 μl of an antibody in a plate provided in the kit, and was incubated with agitation at room temperature for two hours. Then, the plate was washed with a washing buffer, and 200 μl of a pNPP solution was added thereto, followed by incubation at room temperature for one hour. Thereafter, absorbance was measured at 405 nm.

[4] = tested on: osteoarthritis-induced New Zealand white rabbits; experiment: Total joint synovial fluid volume (Arsenazo III) in osteoarthritis-induced rabbits; assay type: in vivo
Excerpt: as §1
Typically, synovial fluid volume increases with inflammation as osteoarthritis progresses. […] The supernatants were used in this test.
Since synovial fluid volume has been reported to change according to the progress of osteoarthritis, total synovial fluid volume was measured to investigate changes in synovial fluids according to osteoarthritis induction and drug treatment. Synovial fluid volume was determined by measuring Ca^2+ concentrations in synovial fluids using an Arsenazo III complexion method (Michaylova V. et al., Anal. Chim. Acta, 53:194 (1971)). Total synovial fluid volume was calculated using a Donnan equilibrium equation. 0.01 ml of a synovial fluid was mixed with 1 ml of an Arsenazo III reagent (588-3, Sigma) and allowed to stand at room temperature for 5 min. Absorbance was measured at 600 nm using a spectrophotometer (DU650, Beckman).

[5] = apigenin-treated right leg (+), four weeks after drug injection
[6] = apigenin-treated right leg (+), four weeks after drug injection, listed as Apigenin
[7] = apigenin-treated right leg (+), two weeks after drug injection
[8] = non-treated left leg (−) of apigenin treatment group, four weeks after drug injection
[9] = non-treated left leg (−) of apigenin treatment group, two weeks after drug injection
[10] = non-treated left leg (−) of apigenin treatment group, four weeks after drug injection, listed as Apigenin

SMILES: O=c1cc(-c2ccc(O)cc2)oc2cc(O)cc(O)c12 [apigenin, 4′,5,7-trihydroxyflavone]
- NO levels in synovial fluids [1, 5]: about 6.01 μM
- NO levels in synovial fluids [1, 6]: 6.01 ± 0.88 µM
- NO levels in synovial fluids [1, 7]: 7.53 ± 4.66 µM
- NO levels in synovial fluids [1, 8]: 5.5 ± 4.59 µM
- NO levels in synovial fluids [1, 9]: 0.65 ± 0.06 µM
- PGE2 (RAW 264.7 cells; LPS 500 ng/ml + apigenin 10 μM): 3935 pg/mL
- PGE2 (RAW 264.7 cells; LPS 500 ng/ml + apigenin 20 μM): 3918 pg/mL
- PGE2 (RAW 264.7 cells; LPS 500 ng/ml + apigenin 40 μM): 1057 pg/mL
- PGE2 (RAW 264.7 cells; LPS 500 ng/ml + apigenin 80 μM): 300 pg/mL
- condition of cartilage by H&E and safranin-O staining [2]: damaged areas of cartilage were found to be restored
- PGE2 levels in joint synovial fluids [3, 5]: about 196.71 pg/ml
- PGE2 levels in joint synovial fluids [3, 6]: 196.71 ± 0.52 pg/mL
- PGE2 levels in joint synovial fluids [3, 7]: 183.26 ± 0.2 pg/mL
- PGE2 levels in joint synovial fluids [3, 8]: about 753.2 pg/ml
- PGE2 levels in joint synovial fluids [3, 10]: 509.2 ± 9.2 pg/mL
- PGE2 levels in joint synovial fluids [3, 9]: 543.3 ± 1.13 pg/mL
- Total synovial fluid volume ([4]; apigenin-treated right leg (+), 50 μg once per week, four weeks after drug injection): about 1.16 ml
- Total synovial fluid volume ([4]; apigenin-treated right leg (+), 50 μg once per week, four weeks after drug injection, listed as Apigenin): 1.16 ± 0.03 mL
- Total synovial fluid volume ([4]; apigenin-treated right leg (+), 50 μg once per week, two weeks after drug injection): 1.13 ± 0.08 mL
- Total synovial fluid volume [4, 8]: about 1.58 ml
- Total synovial fluid volume [4, 10]: 1.58 ± 0.24 mL
- Total synovial fluid volume [4, 9]: 1.17 ± 0.08 mL

Reference: patent US20070154540A1 (KMSI CO., LTD., priority 2003, published 2007)
